Assay results: patent US9420813B2, “Sweetener” (AJINOMOTO CO., INC., priority 2007, dated 2016)
*1 amine or outer side, *2 acyl side, *3 side chain or, on linkers, in order; H or OH if unused. Where no end group is shown, it is not given here. [ ]: non-standard residue; d: D form. γGlu = O=C(O)[C@H](CCC(=O)[*:2])N[*:1]

How the values were obtained:
human calcium receptor = target: T1, human calcium receptor (Homo sapiens, UniProt P41180); test: Calcium receptor-activating effect, Ca ion concentration-dependent Cl ionic current in Xenopus laevis oocyte expression system; type: cell-based; settings: for Activity (lowest concentration at which current is detected): peptide added at 1,000 to 0.1 μM, Ca ion concentration-dependent Cl response current, oocytes voltage-clamped at −70 mV
T1 construct: expressed in transfected cells; host or cells: Xenopus laevis oocytes injected with receptor cRNA; the gene was amplified by PCR from human kidney cDNA (Clontech) and cloned in pBR322
T1 sequence (P41180 20-1078): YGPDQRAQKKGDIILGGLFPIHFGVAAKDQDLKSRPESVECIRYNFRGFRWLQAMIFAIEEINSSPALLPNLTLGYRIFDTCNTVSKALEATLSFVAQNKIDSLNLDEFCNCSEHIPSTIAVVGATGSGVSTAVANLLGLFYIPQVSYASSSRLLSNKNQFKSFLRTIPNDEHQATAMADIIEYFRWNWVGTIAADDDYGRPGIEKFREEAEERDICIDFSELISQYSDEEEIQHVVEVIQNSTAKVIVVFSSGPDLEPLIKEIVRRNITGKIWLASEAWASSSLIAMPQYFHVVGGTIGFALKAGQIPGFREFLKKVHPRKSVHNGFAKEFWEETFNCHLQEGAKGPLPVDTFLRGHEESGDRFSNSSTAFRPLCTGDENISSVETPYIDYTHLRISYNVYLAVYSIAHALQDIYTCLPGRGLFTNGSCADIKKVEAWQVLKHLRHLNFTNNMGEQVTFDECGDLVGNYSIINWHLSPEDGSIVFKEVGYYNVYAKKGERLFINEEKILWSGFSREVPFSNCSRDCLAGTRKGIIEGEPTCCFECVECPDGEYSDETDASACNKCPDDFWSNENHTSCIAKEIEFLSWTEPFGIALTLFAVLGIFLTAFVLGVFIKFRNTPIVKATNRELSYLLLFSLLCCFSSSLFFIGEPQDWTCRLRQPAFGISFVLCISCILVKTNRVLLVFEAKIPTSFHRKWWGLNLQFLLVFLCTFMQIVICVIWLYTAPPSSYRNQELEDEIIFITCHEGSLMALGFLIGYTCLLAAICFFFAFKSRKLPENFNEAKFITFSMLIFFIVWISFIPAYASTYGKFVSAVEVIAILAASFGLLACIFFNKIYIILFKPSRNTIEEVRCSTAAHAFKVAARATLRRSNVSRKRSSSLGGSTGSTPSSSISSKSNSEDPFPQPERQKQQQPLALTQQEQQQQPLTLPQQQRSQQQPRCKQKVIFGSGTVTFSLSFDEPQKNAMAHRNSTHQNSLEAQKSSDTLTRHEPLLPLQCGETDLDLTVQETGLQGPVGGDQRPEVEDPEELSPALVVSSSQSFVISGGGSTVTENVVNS
Protocol: For evaluation of the calcium receptor-activating effect, Ca ion concentration-dependent Cl ionic current measuring method using a Xenopus laevis oocyte expression system was used. If activator is added to Xenopus laevis oocytes in which the calcium receptor is expressed, intracellular Ca ions increase. Then, the Ca ion concentration-dependent Cl channel opens, and the intracellular current value changes as an ionic current. By measuring the change in the intracellular current value, whether the calcium receptor-activating effect is present or not can be determined.
Specifically, the abdomen of Xenopus laevis was opened, and an egg batch was taken out and then treated with a 1% collagenase solution at 20° C. for 2 hours to obtain individual oocytes. Into each oocyte, 50 nl of 1 μg/μl receptor cRNA or 50 nl of sterilized water per oocyte were injected by using a micro glass capillary, and the oocytes were cultured at 18° C. for 2 to 3 days. For the culture, a solution obtained by adding 2 mM of pyruvic acid, 10 U/ml of penicillin and 10 μg/ml of streptomycin to the solution in Reference Example 2 was used. After the culture, a test solution was added to the oocytes injected with cRNA or sterilized water. Electrophysiological measurement was performed by using an amplifier Geneclamp 500 (manufactured by Axon) and recording software AxoScope 9.0 (manufactured by Axon). The oocytes were voltage-clamped at −70 mV by the double electrode voltage clamp method, and the intracellular current via the Ca ion concentration-dependent Cl ion was measured. The maximum value of the intracellular currents was defined as the response current value.
The ability of L-amino acids to activate the calcium receptor was evaluated by using the method described in Reference Example 6. That is, oocytes injected with cRNA of the calcium receptor or sterilized water were prepared, and voltage-clamped at −70 mV by the double electrode voltage clamp method. To the voltage-clamped oocytes, alanine (10 mM), arginine (10 mM), asparagine (10 mM), aspartic acid (10 mM), cysteine (10 mM), glutamine (10 mM), glutamic acid (10 mM), glycine (10 mM), histidine (10 mM), isoleucine (10 mM), leucine (10 mM), lysine (10 mM), methionine (10 mM), phenylalanine (10 mM), proline (10 mM), serine (10 mM), threonine (10 mM), tryptophan (10 mM), tyrosine (10 mM), valine (10 mM), ornithine (10 mM), taurine (10 mM) or hydroxyproline (10 mM) was added, and Ca ion concentration-dependent Cl response current was measured. […] 25, 2000, 97(9): 4814-9.
The effect of D-cysteine for activating a calcium receptor was evaluated by using the method described in Reference Example 6. That is, oocytes injected with cRNA of the calcium receptor or sterilized water were prepared, and voltage-clamped at −70 mV by the double electrode voltage clamp method. To the voltage-clamped oocytes, D-cysteine (10 mM), L-cysteine (10 mM), D-tryptophan (10 mM) or L-tryptophan (10 mM) was added, and Ca ion concentration-dependent Cl response current was measured.
The effect of peptide for activating calcium receptor was evaluated by using the method described in Reference Example 6. That is, oocytes injected with cRNA of the calcium receptor or sterilized water were prepared, and voltage-clamped at −70 mV by the double electrode voltage clamp method. To the voltage-clamped oocytes, γ-Glu-Cys-Gly (50 μM), γ-Glu-Cys(SNO)-Gly (50 μM), γ-Glu-Ala (50 μM), γ-Glu-Gly (500 μM), γ-Glu-Cys (50 μM), γ-Glu-Met (500 μM), γ-Glu-Thr (50 μM), γ-Glu-Val (50 μM), γ-Glu-Orn (500 μM), Asp-Gly (1 mM), Cys-Gly (1 mM), Cys-Met (1 mM), Glu-Cys (50 μM), Gly-Cys (500 μM) or Leu-Asp (1 mM) was added, and Ca ion concentration-dependent Cl response current was measured.
The ability of a peptide to activate calcium receptor was evaluated in the same manner as that of Reference Example 10.

[1] = Quantitative sensory evaluation test, intensity of kokumi-imparting activity; settings: sample 0.1 g/dl; for Kokumi intensity, aftertaste / Kokumi intensity, initial and middle taste: control 0, glutathione 3 points
Protocol: The quantitative sensory evaluation test was performed as follows. […] When a sample is acidic when dissolved, the pH was adjusted with NaOH to pH 6.8 to 7.2 before use. Because it is known that glutathione can impart kokumi to a food, glutathione was used as a comparative control. The test was performed with n=3 based on the following sensory evaluation scores: control was given 0 points, glutathione addition was given 3 points. […] It should be noted that the term “initial and middle taste” is a collective term of the initial taste and middle taste.
The quantitative sensory evaluation test was performed as follows. […] When a sample is acidic when dissolved, the pH of the sample was adjusted with NaOH to pH 6.8 to 7.2 before use. The test was performed with n=5 based on the following sensory evaluation scores: control was given 0 point and glutathione addition was given 3 points.
The quantitative sensory evaluation test was performed as follows. […] As for a sample which is acidic when the sample is dissolved, pH of the sample was adjusted with NaOH to pH 6.8 to 7.2 before use. The test was performed with n=12 based on the following sensory evaluation scores: control: 0 point and glutathione addition: 3 points.

Substance | effect for activating calcium receptor (Cl response current) (human calcium receptor; peptide added at 50 μM) | Kokumi intensity, aftertaste ([1]; n=3) | Kokumi intensity, initial and middle taste ([1]; n=3) | Activity (lowest concentration at which current is detected) (human calcium receptor) | also measured
[γGlu]-Ala | definite effect for activating calcium receptor | 0.2 points | 0.5 points |  | 
[γGlu]-Cys | definite effect for activating calcium receptor |  |  |  | Kokumi intensity, aftertaste ([1]; n=5): 2.0 points; Kokumi intensity, initial and middle taste ([1]; n=5): 2.0 points; Taste profile ([1]; n=5): A slightly
[γGlu]-Met |  | 0.4 points | 1.5 points |  | effect for activating calcium receptor (Cl response current) (human calcium receptor; peptide added at 500 μM): definite effect for activating calcium receptor
[γGlu]-Val | definite effect for activating calcium receptor | 1.0 points | 3.0 points |  | Kokumi intensity, aftertaste ([1]; n=5): 1.0 points; Kokumi intensity, initial and middle taste ([1]; n=5): 3.0 points
γ-Glu-Orn |  |  |  |  | effect for activating calcium receptor (Cl response current) (human calcium receptor; peptide added at 500 μM): definite effect for activating calcium receptor
γ-Glu-Tau |  |  |  | 300 µM | 
γ-Glu-Val-Asp |  |  |  | 1,000 μM | 
γ-Glu-Val-ol |  |  |  | 1,000 μM | 
γ-Glu-t-Leu |  |  |  | 100 µM | 
